Source: patent US11945779B2, “Inhibitors of cancer metastasis through inhibiting migration and invasion of cancer cells” (VSpharmtech, priority 2018, dated 2024)

How the values were obtained:
[1] = tested on: colon cancer cell line DLD-1; assay: Trans-well cancer cell migration inhibition, DLD-1; format: cell-based, human; conditions: for IC50: Colon cancer cell DLD-1, trans-well, 16 hours, read-out: Concentration inhibiting migration of cancer cells by 50% (IC50 value)
Description: (§1) In order to analyze cancer cell migration inhibitory activity of CG-608, CG-609 or CG-618 prepared in Examples 1, 2, or 9, cell migration inhibitory activity was measured using a trans-well by targeting a colon cancer cell line DLD-1 (ATCC-CCL-221), pancreatic cancer cell lines AsPc-1 (ATCC-CCL-1682). CFPAC-1 (ATCC-CCL-1918). Panc-1 (ATCC-CCL-1469), and Miapaca-2 (ATCC-CCL-1420), a skin cancer cell line A375-P (ATCC-CCL-3224), lung cancer cell lines HCC-827 (ATCC-CCL-2868), A549 (ATCC-CCL-185), and NCI-H460 (ATCC-CCL-177), a prostate cancer cell line DU145 (ATCC-HTB-81), a stomach cancer cell line NuGC-3 (JCRB0822), and an ovarian cancer cell line SKOV-3 (ATCC-HTB-77).
(§2) First, the number of DLD-1 cells was measured using a hemocytometer in an RPMI medium without FBS. Thereafter, the trans-well was placed on a 24-well plate and 8×10^4 cells/200 mL of cells were added. In an empty space with the trans-well on the well plate, 500 mL of an RPM medium having 10% FBS containing CG-608, CG-609, or CG-618 was added and cultured in a CO2 incubator at 37° C. for 16 hours. After culture, […] of crystal violet (5 mg/mL of 20% […] was added to each well of the 24-well plate and the trans-well was dyed at room temperature for 30 minutes. The dyed trans-well was washed with PBS and non-migrated cells were wiped off with cotton swabs. The prepared sample was photographed with an inverted microscope mounted with a digital camera (TE 300, Nikon. Japan) and then the number of migrated cells was counted. The degree of inhibiting cell migration was calculated by Equation 1 for a group treated with the sample compared to a control group (DMSO).
In Equation 1, ‘the number of migrated cells treated with sample’ refers to the number of migrated cells measured by treating CG-608 or CG-618 of Example 1, and ‘the number of migrated cells of a control sample’ refers to the number of migrated cells measured by treating only 1% dimethyl sulfoxide (DMSO) instead of the compound.

normal cells MCF10A [2] = assay: Cytotoxicity analysis (WST-1), normal cells MCF10A; format: cell-based; conditions: for Cytotoxicity in normal cells: 1 μM, 5 μM, 10 μM, 48 hours, WST-1, FIG. 2; for Growth of normal cells: FIG. 2
Description: In order to verify cytotoxicity of CG-608 to CG-610 and CG-613 to CG-618 prepared in Examples 1 to 9, human colon cancer cell line DLD-1 cells (ATCC-CCL-221), pancreatic cancer cell line AsPc-1 cells (ATCC-CRL-1682), and normal cells MCF10A (ATCC-CRL-10317) were cultured in an RPMI medium containing 10% bovine fetal serum (FBS) while maintaining 37° C. and 5% CO2, and then the cells were detached using a 0.05% trypsin-EDTA. 4×10^3 cells calculated by a hematocytometer were inoculated in each well of a 96-well plate containing a 10% FBS containing medium and cultured in a 37° C. incubator containing 5% C2.
After 24 hours, the medium of each well was exchanged to a new medium containing a control group (0.1% DMSO) and CG-609 prepared in Example 1 or CG-618 prepared in Example 9 as a representative benproperine derivative at concentrations of 1 μM, 5 μM, and 10 μM. Thereafter, the cells were cultured in an incubator at 37° C. and 5% CO2 for 48 hours. Thereafter, […] of WST-1 (Roche) was added to each well and cultured for 2 hours, and then the absorbance was measured at 450 nm using an ELISA reader (Bio-Rad).

[3] = tested on: human pancreatic cancer cell line AsPc-1; assay: Lamellipodia formation inhibition (confocal microscope), AsPc-1; format: cell-based; conditions: AsPc-1, 6 hours, FIG. 9
Description: (§3) A human colon cancer cell line DLD-1, a human pancreatic cancer cell line AsPc-1, a human melanoma cell line A375P, and normal cells MCF10A were each cultured to 1×10^5 cell density on a 35 mm high-m dish plate (ibid GmbH). The cells attached to the plate were washed with phosphate buffered saline (PBS) and then treated with DMSO or CG-618 dissolved in DMSO for 6 hours. After removing the cell culture medium from the plate, the plate was washed two times with PBS and treated with 4% paraformaldehyde dissolved in PBS at room temperature for 10 minutes to immobilize the cells. The plate was washed with PBS once and then treated with 0.2% Triton X-100 at room temperature for 10 minutes to enhance cell permeability. The plate was washed with PBS and treated with 1% BSA dissolved in PBS at room temperature for 1 hour to block non-specific bonds. In order to check the distribution in cells of filament actin (F-actin), phalloidin bound with Alexa Fluor 488, which was specifically bound with F-actin, was treated at room temperature for 15 minutes. The plate was washed with PBS three times and then treated with 2 mg/mL 4′,6′-diamidino-2-phenylindole (DAPAI) dissolved in PBS for two minutes at room temperature to dye the nucleus. The plate was washed with PBS three times and filled with 1 mL PBS. […] The obtained images were analyzed by an analysis program (LSM Version 3.2 software).

[4] = tested on: human melanoma cell line A375P; assay: Lamellipodia formation inhibition (confocal microscope), A375P; format: cell-based; conditions: A375-p, 6 hours, FIG. 9
Description: as §3

normal cells MCF10A [5] = assay: Lamellipodia formation (confocal microscope), MCF10A; format: cell-based; conditions: normal cell line MCF-10A, 6 hours, FIG. 9
Description: as §3

lung cancer cells A549 = assay: Trans-well cancer cell migration inhibition, A549; format: cell-based; conditions: A549, concentration not given, FIG. 3
Description: as §1
as §2, with “Thereafter, the trans-well was placed on a 24-well plate and 8×10^4 cells/200 mL of cells were added. In an empty space with the trans-well on the well plate, 500 mL of an RPM medium having 10% FBS containing CG-608, CG-609, or CG-618 was added and cultured in a CO2 incubator at 37° C. for 16 hours.” left out, “(DMSO). […]” for “(DMSO).”

Structure (SMILES) | IC50 ([1]; Homo sapiens) [nM] | Cytotoxicity in normal cells (normal cells MCF10A [2]) | Growth of normal cells (normal cells MCF10A [2]) | Formation of lamellipodia [3] | Formation of lamellipodia [4] | Formation of lamellipodia (normal cells MCF10A [5]) | Cancer cell migration inhibitory activity relative to the benproperine derivative compound known in the related art ([1]; DLD-1) | inhibition at 0.05 µM ([1]; Homo sapiens, DLD-1, 50 nM, FIG. 4A) [%] | inhibition at 1 µM ([1]; Homo sapiens, DLD-1, 1 μM, FIG. 3) [%] | Inhibition of cell migration (lung cancer cells A549) [%]
CC1CCCCN1C(C)COc1ccccc1Cc1ccccc1 (racemic) [CG-618, 1-(1-(2-benzylphenoxy)propan-2-yl)-2-methylpiperidine] | 550 | did not exhibit cytotoxicity | did not inhibit | inhibits formation of lamellipodia | inhibits formation of lamellipodia | has no effect |  |  |  | 
C[C@H](COc1ccccc1Cc1ccccc1)N1CCCC[C@@H]1C [CG-609, (S)-1-((R)-1-(2-benzylphenoxy)propan-2-yl)-2-methylpiperidine] | 60 | did not exhibit cytotoxicity | did not inhibit |  |  |  | more than 20 times | ≥ 50 | ≥ 50 | ≥ 50
